The values below come from patent US6596719B1 (Actelio Pharmaceuticals Ltd., priority 1999, dated 2003).

SMILES strings stand for the structures. Where two headings read alike, the source gives them in different places.

One experiment deals with T1, ETA receptors (Rattus norvegicus, UniProt P26684).
T1 sequence (P26684 21-426): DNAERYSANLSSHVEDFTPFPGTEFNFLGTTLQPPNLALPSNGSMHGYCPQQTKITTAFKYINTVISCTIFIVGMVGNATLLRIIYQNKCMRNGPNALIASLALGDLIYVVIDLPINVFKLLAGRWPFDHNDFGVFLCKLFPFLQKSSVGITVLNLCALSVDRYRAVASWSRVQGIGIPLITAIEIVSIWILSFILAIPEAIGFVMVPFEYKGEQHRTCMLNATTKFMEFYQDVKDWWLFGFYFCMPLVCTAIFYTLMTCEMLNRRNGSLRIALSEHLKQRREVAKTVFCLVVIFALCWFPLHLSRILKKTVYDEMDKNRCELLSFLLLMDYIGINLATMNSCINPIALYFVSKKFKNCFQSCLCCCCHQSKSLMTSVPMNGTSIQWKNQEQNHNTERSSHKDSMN
Briefly: Inhibition of endothelin-1-induced contractions on isolated rat aortic rings. The conditions noted are these: for pA2 value ETA: rat aortic rings, contraction induced by endothelin-1, 10 min incubation.

Experiment [1] deals with T2, human recombinant ETB receptors (Homo sapiens, UniProt P24530).
T2 construct: expressed in transfected cells; host or cells: CHO cells (microsomal membranes)
T2 sequence (P24530 27-442): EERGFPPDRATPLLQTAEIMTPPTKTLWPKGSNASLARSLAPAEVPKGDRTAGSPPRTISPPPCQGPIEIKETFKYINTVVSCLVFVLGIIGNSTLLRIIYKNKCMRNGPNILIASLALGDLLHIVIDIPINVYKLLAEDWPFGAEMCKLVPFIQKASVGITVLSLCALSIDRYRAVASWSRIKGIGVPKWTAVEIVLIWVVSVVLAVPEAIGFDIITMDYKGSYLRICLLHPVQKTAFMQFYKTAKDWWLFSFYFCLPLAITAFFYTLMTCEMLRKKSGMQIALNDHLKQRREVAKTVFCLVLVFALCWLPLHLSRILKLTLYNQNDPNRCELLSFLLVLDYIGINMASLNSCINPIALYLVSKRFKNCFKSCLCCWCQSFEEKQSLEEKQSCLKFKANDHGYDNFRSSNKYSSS
Nature of the experiment: Inhibition of endothelin binding to membranes from CHO cells carrying human ET receptors (ETB). How it is done: 1) Inhibition of Endothelin Binding to Membranes from CHO Cells Carrying Human ET Receptors:
For competition binding studies, membranes of CHO cells expressing human recombinant ETA or ETB receptors were used. Microsomal membranes from recombinant CHO cells were prepared and the binding assay made as previously described (Breu V., et al, FEBS Lett 1993; 334:210).
The assay was performed in 200 uL 50 mM Tris/HCl buffer, pH 7.4, including 25 mM MnCl2, 1 mM EDTA and 0.5% (w/v) BSA in polypropylene microtiter plates. […]. […] After two h, the membranes were filtered on, filterplates containing GF/C filters (Unifilterplates from Canberra Packard S. A. Zürich, Switzerland). To each well, 50 uL of scintillation cocktail was added (MicroScint 20, Canberra Packard S. A. Zürich, Switzerland) and the filter plates counted in a microplate counter (TopCount, Canberra Packard S. A. Zürich, Switzerland).
All the test compounds were dissolved, diluted and added in DMSO. […] […].

Another experiment has as its target T3, ETB receptors (Rattus norvegicus, UniProt P21451).
T3 sequence (P21451 27-442): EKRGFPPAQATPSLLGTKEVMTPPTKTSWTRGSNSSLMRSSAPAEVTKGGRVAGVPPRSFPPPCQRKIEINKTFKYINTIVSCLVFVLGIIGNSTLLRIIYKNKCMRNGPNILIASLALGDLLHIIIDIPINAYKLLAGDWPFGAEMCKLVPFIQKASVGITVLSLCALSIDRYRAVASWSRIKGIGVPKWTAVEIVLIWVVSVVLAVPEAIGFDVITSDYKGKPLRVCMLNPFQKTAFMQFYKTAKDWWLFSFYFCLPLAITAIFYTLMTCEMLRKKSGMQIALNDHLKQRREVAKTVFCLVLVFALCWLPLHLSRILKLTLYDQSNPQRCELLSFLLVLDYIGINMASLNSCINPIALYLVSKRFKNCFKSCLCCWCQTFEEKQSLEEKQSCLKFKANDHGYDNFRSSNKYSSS
Briefly: Inhibition of sarafotoxin S6c-induced contractions on isolated rat tracheal rings. The conditions noted are these: for pA2 value ETB: rat tracheal rings, contraction induced by sarafotoxin S6c, 10 min incubation.

The target in experiment [2] is T4, human recombinant ETA receptors (Homo sapiens, UniProt P25101).
T4 construct: expressed in transfected cells; host or cells: CHO cells (microsomal membranes)
T4 sequence (P25101 21-427): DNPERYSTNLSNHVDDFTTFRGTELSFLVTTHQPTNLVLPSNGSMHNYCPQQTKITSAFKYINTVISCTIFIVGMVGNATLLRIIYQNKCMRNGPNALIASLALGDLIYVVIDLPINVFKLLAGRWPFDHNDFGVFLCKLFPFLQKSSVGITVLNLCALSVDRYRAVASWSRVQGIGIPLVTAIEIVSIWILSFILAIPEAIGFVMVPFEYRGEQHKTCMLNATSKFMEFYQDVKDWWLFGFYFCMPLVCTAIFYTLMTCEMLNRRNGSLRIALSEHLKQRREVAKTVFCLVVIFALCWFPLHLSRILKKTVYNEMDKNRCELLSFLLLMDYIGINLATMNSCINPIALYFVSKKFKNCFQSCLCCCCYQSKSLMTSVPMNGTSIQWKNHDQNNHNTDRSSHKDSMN
Briefly: Inhibition of endothelin binding to membranes from CHO cells carrying human ET receptors (ETA).

The mark [3] stands for this setting: membranes of CHO cells expressing human recombinant ETA receptors, 8 pM [125I]ET-1, 2 h at 20° C.
Setting [4] is: membranes of CHO cells expressing human recombinant ETB receptors, 8 pM [125I]ET-1, 2 h at 20° C.

Consider `COc1ccccc1Oc1c(NS(=O)(=O)c2ccc(C(C)(C)C)cc2)nc(-c2ncccn2)nc1OCCNS(=O)(=O)c1cccs1` [Example 7, p-tert.-butyl-N-[6-(ethoxy-2-(2-thiophenesulfonamido))-5-(o-methoxyphenoxy)-2-(2-pyrimidinyl)-4-pyrimidinyl]benzene-sulfonamide], for which the “pA2 value ETA” value on ETA receptors was found to be 6.08. For the same compound, the values for the IC50 in experiment [1] and in experiment [2] (setting [3]) were 15.8 nM and 63.6 nM, respectively. Moreover, at ETB receptors, the “pA2 value ETB” value came to 7.15.
Regarding `CCS(=O)(=O)NCCOc1nc(N2CCOCC2)nc(NS(=O)(=O)c2ccc(C(C)C)cn2)c1Oc1ccccc1OC` [Example 61, 5-isopropyl-N-[6-(2-(ethanesulfonylamino)-ethoxy)-5-(o-methoxyphenoxy)-2-(N-morpholino)-4-pyrimidinyl]-2-pyridine sulfonamide], at ETA receptors, the “pA2 value ETA” value is on record as 7.02. In addition, the IC50 in experiment [1] was found to be 183 nM; in experiment [2], 92 nM. Also, the “pA2 value ETB” value on ETB receptors is given as 6.36.
As for `COc1ccccc1Oc1c(NS(=O)(=O)c2ccc(C(C)(C)C)cc2)nc(C2CC2)nc1OCCCNS(=O)(=O)c1cccs1` [Example 88, 4-tert.-butyl-N-[6-(3-(2-thiophenesulfonylamino)-propoxy)-5-(o-methoxyphenoxy)-2-cyclopropyl-4-pyrimidinyl]-benzene-sulfonamide], the “pA2 value ETA” value on ETA receptors is on record as 6.16. On ETB receptors, the “pA2 value ETB” value worked out at 7.95.
With `COc1ccccc1Oc1c(NS(=O)(=O)c2ccc(C(C)C)cn2)nc(-c2cc(OC)c(OC)c(OC)c2)nc1OCCNS(=O)(=O)c1cccs1` [Example 15, 5-i.-propyl-N-[6-(ethoxy-2-thiophenesulfonamido)-5-(o-methoxyphenoxy)-2-(3,4,5-trimethoxyphenyl)-4-pyrimidinyl]pyridine-2-sulfonamide], the IC50 in experiment [1] was determined as 7.3 nM; in experiment [2] (setting [3]), 1320 nM. On ETB receptors, this compound gave a Kb of 40.7 nM.
For `COc1ccccc1Oc1c(NS(=O)(=O)c2ccc(C(C)C)cn2)nc(-c2ccncc2)nc1OCCNS(=O)(=O)c1ccc(C)cc1` [Example 12], the Kb on ETA receptors was 851 nM; on ETB receptors it was 513 nM. Besides, the IC50 came out at 73.3 nM in experiment [1] and 2120 nM in experiment [2].
Regarding `CCS(=O)(=O)NCCCOc1nc(C2CC2)nc(NS(=O)(=O)c2ccc(C(C)(C)C)cc2)c1Oc1ccccc1OC` [Example 87], at ETA receptors, the “pA2 value ETA” value amounted to 6.52. Also, the IC50 worked out at 33.1 nM in experiment [1] (setting [4]) and 48.1 nM in experiment [2] (setting [3]).
Regarding `COc1ccccc1Oc1c(NS(=O)(=O)c2ccc(C(C)C)cn2)nc(N2CCOCC2)nc1OCCNS(=O)(=O)c1ccc(C)cc1` [Example 60, 5-isopropyl-N-[6-(2-(4-methylbenzenesulfonylamino)-ethoxy)-5-(o-methoxyphenoxy)-2-(N-morpholino)-4-pyrimidinyl]-2-pyridine sulfonamide], the IC50 in experiment [1] came out at 16 nM; in experiment [2], 1440 nM. On ETB receptors, the “pA2 value ETB” value came to 7.3.
With `CCCS(=O)(=O)NCCOc1nc(-c2cc(OC)c(OC)c(OC)c2)nc(NS(=O)(=O)c2ccc(C(C)C)cn2)c1Oc1ccccc1OC` [Example 16, 5-i.-propyl-N-[6-(ethoxy-2-(1-propanesulfonamido))-5-(o-methoxyphenoxy)-2-(3,4,5-trimethoxyphenyl)-4-pyrimidinyl]pyridine-2-sulfonamide], the Kb was above 3160 nM on ETA receptors and 34.7 nM on ETB receptors. In addition, the values for the IC50 in experiment [1] and in experiment [2] (setting [3]) were 24.5 nM and 261 nM, respectively.
For `COc1ccccc1Oc1c(NS(=O)(=O)c2ccc(C(C)C)cn2)nc(-c2ccncc2)nc1OCCNS(=O)(=O)C(C)C` [Example 10, 5-i.-propyl-N-[6-(ethoxy-2-(2-propanesulfonamido))-5-(o-methoxyphenoxy)-2-(4-pyridyl)-4-pyrimidinyl]pyridine-2-sulfonamide], the Kb is 186 nM on ETA receptors and 1260 nM at ETB receptors. The IC50 in experiment [1] amounted to 193 nM; in experiment [2], 67.2 nM.
At ETA receptors, `CCS(=O)(=O)NCCOc1nc(-c2ncccn2)nc(NS(=O)(=O)c2ccc(C(C)C)cn2)c1Oc1ccccc1OC` [Example 70, 5-isopropyl-N-[6-(2-(ethanesulfonylamino)-ethoxy)-5-(o-methoxyphenoxy)-2-(2-pyrimidinyl)-4-pyrimidinyl]-2-pyridine sulfonamide] showed a Kb of 891 nM. Besides, the IC50 in experiment [1] was 2070 nM; in experiment [2], 282 nM.
Turning to `CCS(=O)(=O)NCCOc1nc(C(F)(F)F)nc(NS(=O)(=O)c2ccc(C(C)C)cn2)c1Oc1ccccc1OC` [Example 55, 5-i.-propyl-N-[6-(2-(ethanesulfonylamino)-ethoxy)-5-(o-methoxyphenoxy)-2-trifluoromethyl-4-pyrimidinyl]pyridine-2-sulfonamide], on ETA receptors, the “pA2 value ETA” value is reported as 6.2. Also, the “pA2 value ETB” value on ETB receptors turned out to be 6.3.
Consider `CCS(=O)(=O)NCCOc1nc(S(C)(=O)=O)nc(NS(=O)(=O)c2ccc(C(C)(C)C)cc2)c1Oc1ccccc1OC` [Example 36g], for which the IC50 in experiment [1] worked out at 93 nM; in experiment [2] it was 121 nM.
For the compound `COc1ccccc1Oc1c(NS(=O)(=O)c2ccc(C(C)C)cn2)nc(-c2cc(OC)c(OC)c(OC)c2)nc1OCCNS(=O)(=O)c1ccc(C)cc1` [Example 11, 5-i.-propyl-N-[6-(ethoxy-2-(4-methylbenzenesulfonamido))-5-(o-methoxyphenoxy)-2-(3,4,5-trimethoxyphenyl)-4-pyrimidinyl]pyridine-2-sulfonamide], the results for the IC50 in experiment [1] and in experiment [2] (setting [3]) were 4.3 nM and 5110 nM, respectively. Further, at ETB receptors, the “pA2 value ETB” value is reported as 7.46.
Take `COc1ccccc1Oc1c(NS(=O)(=O)c2ccc(C(C)C)cn2)nc(C)nc1OCCNS(=O)(=O)c1ccc(C)cc1` [Example 21, 5-i.-propyl-N-[6-(ethoxy-2-p-toluenesulfonamido)-5-(o-methoxyphenoxy)-2-methyl-4-pyrmidinyl]pyridine-2-sulfonamide]: the results for the IC50 in experiment [1] and in experiment [2] were 21.8 nM and 881 nM, respectively.
In the case of `CCCS(=O)(=O)NCCOc1nc(N2CCOCC2)nc(NS(=O)(=O)c2ccc(C(C)C)cn2)c1Oc1ccccc1OC` [Example 46, 5-isopropyl-N-[6-(2-(1-propane)sulfonylamino-ethoxy)-5-(o-methoxyphenoxy)-2-(N-morpholino)-4-pyrimidinyl]-2-pyridine sulfonamide], the IC50 in experiment [1] (setting [4]) is 103 nM; in experiment [2] (setting [3]), 140 nM.

What is called IC50 is the concentration that gives 50% inhibition.
